The source of these data is a melting point compilation (Tetko et al.).

One may read the melting point as the temperature of the solid-liquid transition.

`O=C(O)c1nn(-c2ccccc2)c2c1CCC2`: the melting point lay in the range of 179 to 181 °C. With `Fc1ccc(-c2nnc(Cl)c3ccccc23)cc1` the figure was 186 to 188 °C. With `CCc1ccc(-c2nn(-c3ccccc3C)cc2C(=O)O)cc1` the figure was 177 to 179 °C; with `CC1(C)C(=O)NS1(=O)=O`, 137 to 139 °C; with `N#Cc1ccc(N2CCN(c3ccc(F)cc3)CC2)nc1`, 166 to 168 °C.

For `O=C(O)c1ccccc1NCCO`, the melting point was 142 to 144 °C. In turn, `O=C(O)c1ccn(Cc2ccccc2)c1` had a melting point of 150 to 152 °C. The compound `CN(C)S(=O)(=O)c1ccc(I)c(C(=O)O)c1` yielded a melting point of 198 to 200 °C. The compound `CC(C)(C)CNC(=O)Nc1ccc(Cl)c(C(=O)O)c1` yielded a melting point of 208 to 210 °C.

`O=C(O)c1ccc(Oc2cccc(F)c2)cc1` had a melting point of 146 to 148 °C. `O=C(O)c1cc(Cl)nc(Oc2ccc(Br)cc2)c1` had a melting point of 213 to 215 °C. Consider `Cn1ccnc1SCc1cccc(C(=O)O)c1`, for which the melting point lay in the range of 157 to 159 °C. In turn, `CCOC(C)C(N)=S` (stereo unspecified) yielded a melting point of 54 to 56 °C.

In turn, `Clc1noc(-c2ccco2)n1` showed a melting point of 73 to 75 °C.

With `Nc1cc(Cl)ccc1C(=O)N1CCCCC1`, the melting point was in the range of 103 to 105 °C.

Compound `Cc1ccc(NC(=O)NCC2CCCNC2)cc1` (stereo unspecified) came in with a melting point of 161 to 163 °C. On to `CC1(c2cccc(-n3cnnn3)c2)NC(=O)NC1=O` (stereo unspecified), for which the melting point fell in the range of 190 to 192 °C. Take `OCCN(Cc1ccccc1)Cc1ccccc1`: the melting point lay in the range of 41 to 43 °C. With `O=C(CCl)c1ccc[nH]1`, the melting point lay within 114 to 116 °C. Compound `Cc1cc(NC(=O)CCl)no1` showed a melting point of 182 to 190 °C. With `COc1cccc(C(C[N+](=O)[O-])c2c[nH]c3ccccc23)c1` (stereo unspecified), the melting point was in the range of 93 to 95 °C. For `O=C1C=CC=NC1=C(O)Nc1cccnc1` the value was 120 to 122 °C. In the case of `O=C1NC(=O)C2(CCCN(Cc3ccccc3)C2)N1` (stereo unspecified), the melting point lay in the range of 209 to 211 °C.

Take `Brc1cnn(-c2ccncc2)c1`: the melting point lay within 125 to 127 °C. In turn, `COC(=O)c1c[nH]c(C2CC2)n1` had a melting point of 119 to 121 °C. As to `Cc1c(S(=O)(=O)Cl)cnn1-c1ccc(Cl)cc1`, the melting point lay within 119 to 121 °C. The compound `CNc1ccc(Br)cc1N` registered a melting point of 49 to 51 °C. As to `O=C(O)c1ncccc1C(F)(F)F`, the melting point lay in the range of 107 to 109 °C. For `NC(=O)C1CCCN1Cc1ccccc1N` (stereo unspecified) the value was 121 to 123 °C.

Regarding `NC(=O)c1ccc(CCl)c([N+](=O)[O-])c1`, the melting point lay in the range of 115 to 117 °C. With `O=C(O)CSCc1cccc(Cl)c1` the figure was 74 to 76 °C. For `COc1cc(CNC(=O)CCl)cc(OC)c1OC`, the melting point lay within 106 to 108 °C. For the compound `CC1CCN(S(=O)(=O)c2ccc(C(=O)O)cc2)CC1`, the melting point lay within 180 to 182 °C.

As to `COc1ccc(Cl)cc1-c1cc(N)[nH]n1`, the melting point lay in the range of 126 to 128 °C. The compound `O=C(Nc1ccccn1)OCC(F)(F)F` had a melting point of 150 to 152 °C.

The compound `O/N=C(/Cc1nc2ccccc2n1C(F)F)c1ccccc1` returned a melting point of 165 to 167 °C.

Turning to `Cc1cc(S)n2c(nc3ccccc32)c1C#N`, the melting point lay in the range of 198 to 200 °C. As to `Oc1cccc(-c2nnco2)c1`, the melting point was 211 to 213 °C. `Cc1cc(F)ccc1S(=O)(=O)Nc1ccc(C(=O)O)cc1`: the melting point was in the range of 199 to 201 °C. For `CC1CCC2(CC1)NC(=O)N(CC(=O)O)C2=O` (stereo unspecified) the value was 223 to 225 °C; for `CN(C)S(=O)(=O)c1ccc(Cl)nc1`, 117 to 119 °C.

`CC(C)(C)OC(=O)NCCOc1cccc(N)c1` had a melting point of 65 to 67 °C. Compound `CCOC(=O)/C(C#N)=C/Nc1ccc(Br)cc1` came in with a melting point of 149 to 151 °C. Compound `CCNCC(=O)Nc1c(C)cccc1C` yielded a melting point of 45 to 47 °C. `Cc1nc(COc2ccccc2/C=C/C(=O)O)cs1` registered a melting point of 143 to 145 °C. For `CNC(=O)c1cc(Oc2cccc(O)c2C)ccn1`, the melting point is 179 to 181 °C. With `NC(=O)C1OCCc2ccccc21` (stereo unspecified) the figure was 169 to 171 °C; with `Nn1c(S)nnc1Cc1ccc(F)cc1`, 203 to 205 °C; with `Nc1ccccc1S(=O)(=O)N1CCOCC1`, 114 to 116 °C.

In turn, `Cc1csc(NC(=O)Cc2ccc(N)cc2)n1` displayed a melting point of 143 to 145 °C. `FC(F)(F)c1ccc(OCc2ccc(Cl)nc2)cc1` registered a melting point of 106 to 108 °C. In turn, `NNC(=O)CCN1CCN(c2ccccc2)CC1` returned a melting point of 120 to 122 °C. Compound `COc1cccc(-c2csc(=O)[nH]2)c1` came in with a melting point of 154 to 156 °C. With `NS(=O)(=O)Cc1cc(Cl)ccc1F` the figure was 186 to 188 °C.

With `O=C(O)C1CCCN(S(=O)(=O)c2cccnc2)C1` (stereo unspecified), the melting point lay within 214 to 216 °C. With `CCOC(=O)c1cnn(-c2ccc(OCC)cc2)c1N` the figure was 119 to 121 °C. Consider `NCCS(=O)(=O)Cc1ccccc1`, for which the melting point lay in the range of 76 to 78 °C. For the compound `Cc1ccc(-c2csc(NC(=O)CCl)n2)cc1`, the melting point was in the range of 169 to 171 °C. For `O=C(O)C1CCN(C(=O)c2ccc(C(F)(F)F)cc2)CC1`, the melting point fell in the range of 162 to 164 °C. For `O=Cc1cnn(-c2ccc(Br)cc2)c1` the value was 124 to 126 °C; for `Cc1nc(C=O)c2ccccn12`, 115 to 117 °C. For `O=Cc1ccc(Oc2ccc([N+](=O)[O-])cc2Cl)c(F)c1` the value was 81 to 83 °C; for `O=C(O)CSCC(=O)N1CCCCC1`, 91 to 93 °C. With `Cc1nnc(N2CCC(=O)CC2)s1` the figure was 95 to 97 °C; with `COc1cccc2sc(NC(=O)OCC(F)(F)F)nc12`, 133 to 135 °C; with `Nc1nnc(-c2ccc(Cl)cc2Cl)[nH]1`, 228 to 230 °C. `NNC(=O)CC1CCCCC1` came in with a melting point of 119 to 121 °C. For the compound `CNc1ccc(Cl)nn1`, the melting point lay in the range of 194 to 196 °C. The compound `CC(=O)c1cccc(OCC(=O)O)c1` came in with a melting point of 119 to 121 °C. As for `CCOc1ccccc1OCCCC(=O)O`, the melting point fell in the range of 66 to 68 °C. The compound `NNc1ccc(S(=O)(=O)C(F)F)cc1` displayed a melting point of 72 to 74 °C. With `N#CCCSc1ccc(C(F)(F)F)cc1N` the figure was 58 to 60 °C; with `Cc1cc(Cl)nc2c(C(C)C)cccc12`, 43 to 45 °C.

For `CC(C)c1[nH]ncc1C(=O)O`, the melting point lay in the range of 216 to 218 °C. For the compound `COCCn1c(C)cc(C(=O)CCl)c1C`, the melting point lay within 87 to 91 °C. For `O=C(O)Cc1ccc(NC(=O)c2cc3ccccc3o2)cc1`, the melting point fell in the range of 189 to 191 °C. In turn, `CS(=O)(=O)c1ccc(N)cc1` displayed a melting point of 132 to 134 °C. In the case of `COc1ccc2c(c1)NC(=O)CCC2`, the melting point is 127 to 129 °C. Compound `COC(=O)CCCOc1ccccc1F` yielded a melting point of 29 to 31 °C. Consider `CC(Oc1ccccc1Br)C(=O)O` (stereo unspecified), for which the melting point lay in the range of 138 to 140 °C. `CS(=O)(=O)c1cccc(Cl)c1C(N)=O` had a melting point of 200 to 202 °C. As for `CC(=O)CN1C(=O)COCC1=O`, the melting point lay within 77 to 79 °C.

`Cn1cc(C2CC2C(=O)O)cn1` (stereo unspecified) displayed a melting point of 138 to 140 °C. `Clc1ccc(-n2cccn2)cc1Cl` registered a melting point of 59 to 61 °C. With `O=C(O)CCCCc1ccc(Br)cc1` the figure was 90 to 92 °C; with `Cc1nc(-c2ccc(Cl)cc2)cs1`, 119 to 121 °C. As to `CC(=O)c1ccc(Cl)c(F)c1`, the melting point is 39 to 41 °C. `O=C(O)CCCC(=O)c1ccc(Cl)c(Cl)c1` gave a melting point of 140 to 142 °C. As to `NC(=O)c1c(-c2ccc(C(F)(F)F)cc2)csc1N`, the melting point lay in the range of 158 to 160 °C.

On to `O=C(O)c1cc(Cl)c2c(c1)OCO2`, for which the melting point fell in the range of 239 to 241 °C. In the case of `Cc1c[nH]c(=O)n1-c1cccc(C#N)c1`, the melting point lay within 189 to 191 °C. The compound `CS(=O)(=O)c1cc(Br)ccc1[N+](=O)[O-]` registered a melting point of 152 to 154 °C. Regarding `CCc1n[nH]c(=O)c(C(=O)O)c1CC`, the melting point fell in the range of 154 to 156 °C. On to `COc1cccc(NCc2nnc3n2CCCCC3)c1`, for which the melting point was 176 to 180 °C. The compound `NCc1noc(-c2ccco2)n1` yielded a melting point of 143 to 145 °C.

Regarding `NNc1cccc(F)c1F`, the melting point fell in the range of 61 to 63 °C. Take `O=C(O)c1cccnc1OCCO`: the melting point is 196 to 198 °C. In turn, `Cc1ccc(-c2nc(N)sc2CC(=O)O)cc1C` came in with a melting point of 265 to 267 °C. Consider `O=[N+]([O-])c1cc2c(cc1S(=O)(=O)Cl)OCCCO2`, for which the melting point was in the range of 125 to 127 °C.

`Nc1nc(-c2ccccc2Cl)c(-c2ccccc2Cl)s1` gave a melting point of 198 to 200 °C. For `NCC(c1ccc(Cl)cc1Cl)c1c[nH]c2ccccc12` (stereo unspecified) the value was 130 to 132 °C. For `Nc1cccc2ccncc12` the value was 169 to 171 °C. `Cc1cccc(NC(=O)C2CCCNC2)n1` (stereo unspecified) showed a melting point of 124 to 126 °C. With `O=S1(=O)CCC(S(=O)(=O)Cl)C1` (stereo unspecified) the figure was 114 to 116 °C; with `CC(N)C(O)c1c(F)cccc1F` (stereo unspecified), 119 to 121 °C; with `O=c1[nH]c(CCl)nc2c1oc1ccccc12`, 98 to 100 °C. `SCc1c(Cl)cccc1Cl`: the melting point was in the range of 44 to 46 °C.

Compound `O=C(Nc1ccccc1)C(Cl)C(=O)c1ccccc1` (stereo unspecified) showed a melting point of 113 to 115 °C. `CCCNc1ccc(S(N)(=O)=O)cc1N`: the melting point was 104 to 106 °C. For `COC(=O)c1c(F)cc(C#N)cc1F` the value was 111 to 113 °C. For `Nc1cc2c(cc1[N+](=O)[O-])OCC(=O)N2` the value was 323 to 325 °C; for `O=Cc1ccccc1OCC(F)(F)F`, 51 to 53 °C; for `Cc1sc2ncnc(Sc3ccccc3C(=O)O)c2c1C`, 200 to 202 °C. With `Cc1c(C(=O)O)cnn1CC(C)C`, the melting point lay within 109 to 111 °C.

`Cc1cc2cc(Br)ccc2s1` yielded a melting point of 69 to 71 °C. Compound `O=C1NC(=O)C2CC12` (stereo unspecified) had a melting point of 94 to 96 °C.

Regarding `CC(C)Oc1ccc(C(O)CN2CCN(C)CC2)cc1` (stereo unspecified), the melting point fell in the range of 103 to 105 °C. Take `CCOC(=O)COc1ccccc1C(C)=O`: the melting point fell in the range of 44 to 46 °C. For `O=C(O)c1ccc(I)cc1Cl` the value was 159 to 161 °C; for `Fc1ccc(Oc2ccc(Cl)nn2)c(F)c1`, 113 to 115 °C; for `CCN(CC)C(=O)CCC(=O)O`, 74 to 76 °C.
